Results reported in US8609680B2, “2,3-dihydro-1H-inden-1-yl-2,7-diazaspiro[3.5] nonane derivatives” (Pfizer Inc., priority 2010, dated 2013).
Where two headings read alike, the source gives them in different places.

Legend:
human GHSR1a [1] = target: T1, human GHSR1a (Homo sapiens, UniProt Q92847); assay: Human Ghrelin Functional Assay (DELFIA GTP-binding assay); type: biochemical; settings: GTP-Europium exchange, human GHSR1a membranes, with and without ghrelin at EC80
T1 construct: expressed in transfected cells; host or cells: HEK293 Tetracycline-Inducible cell line, used as membranes
T1 sequence (Q92847 whole entry): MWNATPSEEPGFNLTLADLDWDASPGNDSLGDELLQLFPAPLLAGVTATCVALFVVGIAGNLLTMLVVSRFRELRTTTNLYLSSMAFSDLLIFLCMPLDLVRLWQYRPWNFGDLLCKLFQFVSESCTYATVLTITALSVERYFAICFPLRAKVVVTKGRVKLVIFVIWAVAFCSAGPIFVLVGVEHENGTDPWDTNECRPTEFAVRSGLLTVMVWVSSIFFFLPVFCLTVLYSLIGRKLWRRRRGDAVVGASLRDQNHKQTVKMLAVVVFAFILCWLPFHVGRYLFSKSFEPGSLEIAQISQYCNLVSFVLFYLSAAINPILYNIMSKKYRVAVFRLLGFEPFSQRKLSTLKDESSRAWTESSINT
Description: Human Ghrelin Functional Assay
To measure the ability of test compounds in the present invention to modulate the activity of human GHSR1a (agonize, antagonize, partially agonize, inversely agonize), a DELFIA GTP-binding assay (Perkin Elmer, AD0260 and AD0261) is performed. The assay monitors the ligand-dependent exchange of GDP for GTP. GPCR activation results in an increase in fluorescence as receptor-bound GDP is replaced by Europium-labeled GTP.
Ghrelin functional assays are performed in a final volume of 39.5 μl containing 720 ng human GHSR1a (HEK293 Tetracycline-Inducible cell line expressing the human growth secretagogue receptor la, prepared as membranes), 9 nM GTP-Europium and varying concentrations of test compound or vehicle. To test for receptor antagonism, membranes are incubated in the presence of agonist ghrelin (Anaspec, 24158) at the EC80 concentration, plus test compound or vehicle.
Briefly, test compounds are prepared at room temperature in 384-well plates (Matrix, 4340). […] Samples are then transferred as 6 μl to 384-well filter plates (Pall, 5071) containing 30 μl of 24 μg/ml hGHSR1a membrane and 0.35 mg/ml saponin (Perkin Elmer, AD0261) in basal buffer.
The mixture is incubated 24 minutes at room temperature with gentle shaking, followed by the addition of 3.5 μl of 100 nM GTP-Europium in 50 mM HEPES, pH 7.4. Samples are shielded from light and incubated for 90 minutes further at room temperature with gentle shaking. The reactions are suctioned dry with vacuum, washed three times with 75 μl ice cold 1× GTP Wash Solution (Perkin Elmer, AD0261), and immediately read on the Envision 2101 Multilabel Reader (Perkin Elmer) using excitation filter 320 nm and emission filter 615 nm.

human GHSR1a [2] = target: T1, human GHSR1a; assay: Human Ghrelin SPA Binding Assay
From the text: The SPA format was utilized for high throughput screening of test compounds and filter binding served for more comprehensive binding characterization.
Human Ghrelin SPA Binding Assay

[3] = SPA format, [125I] ghrelin displacement, human GHSR1a membranes from HEK293 Tetracycline-Inducible cell line
[4] = SPA format, [125I] ghrelin displacement, human GHSR1a membranes, Ki=IC50/(1+[ligand]/Kd)

In the case of `Cc1ccnc(-c2ccc3c(c2)CC[C@H]3N2CC3(CCN(C(=O)Cc4ccc5c(n4)OCCO5)CC3)C2)n1` [Example 3U], the functional comment (human GHSR1a [1]) is reported as “inverse agonist”, the IC50 (human GHSR1a [2]) is reported as 0.00808 µM and the Ki (human GHSR1a [2]) is reported as 0.0069 µM.
For `Cc1ccn2cc(CC(=O)N3CCC4(CC3)CN([C@@H]3CCc5cc(-c6ccc(C(N)=O)nc6)ccc53)C4)nc2c1` [Example 9F], the functional comment (human GHSR1a [1]) was “inverse agonist”, the IC50 (human GHSR1a [2]) was 0.0228 µM and the Ki (human GHSR1a [2]) was 0.0202 µM.
With `Cc1cc(-c2ccc3c(c2)CC[C@H]3N2CC3(CCN(C(=O)Cc4cn5ccccc5n4)CC3)C2)ncn1` [Example 3L] the functional comment (human GHSR1a [1]) was “inverse agonist”, the IC50 (human GHSR1a [2]) was 0.023 µM and the Ki (human GHSR1a [2]) was 0.0202 µM.
`Cc1ccn2cc(CC(=O)N3CCC4(CC3)CN([C@@H]3CCc5cc(-c6cc(C#N)ncn6)ccc53)C4)nc2c1` [Example 3AP] was tested, and the functional comment (human GHSR1a [1]) was “inverse agonist”, the IC50 (human GHSR1a [2]) was 0.0272 µM and the Ki (human GHSR1a [2]) was 0.0244 µM.
In the case of `COc1ccc(CC(=O)N2CCC3(CC2)CN([C@@H]2CCc4cc(-n5nccn5)ccc42)C3)cc1` [Example 6E], the functional comment (human GHSR1a [1]) is reported as “inverse agonist”, the IC50 (human GHSR1a [2]) is reported as 0.00377 µM and the Ki (human GHSR1a [2]) is reported as 0.00309 µM.
For `Cc1cc(-c2ccc3c(c2)CC[C@H]3N2CC3(CCN(C(=O)Cc4cn5cc(C)sc5n4)CC3)C2)ncn1` [Example 3F], the functional comment (human GHSR1a [1]) was “inverse agonist”, the Ki (human GHSR1a [2]) was 0.00437 µM and the IC50 (human GHSR1a [2]; [3]) was 0.00502 µM.
For `NC(=O)c1ccc(-c2ccc3c(c2)CC[C@H]3N2CC3(CCN(C(=O)Cc4ccc(C5CC5)cn4)CC3)C2)cn1` [Example 10E], the functional comment (human GHSR1a [1]) was “inverse agonist”, the IC50 (human GHSR1a [2]) was 0.00998 µM and the Ki (human GHSR1a [2]) was 0.00886 µM.
For `CCc1cnc(-c2ccc3c(c2)CC[C@H]3N2CC3(CCN(C(=O)Cc4ccc(OC)cc4)CC3)C2)nc1` [Example 3W], the functional comment (human GHSR1a [1]) was “inverse agonist”, the IC50 (human GHSR1a [2]) was 0.0172 µM and the Ki (human GHSR1a [2]) was 0.0148 µM.
For `Cc1cc(-c2ccc3c(c2)CC[C@H]3N2CC3(CCN(C(=O)Cc4ccc5c(n4)OCCO5)CC3)C2)ncn1` [Example 3D], the functional comment (human GHSR1a [1]) was “inverse agonist”, the IC50 (human GHSR1a [2]) was 0.0102 µM and the Ki (human GHSR1a [2]) was 0.00891 µM.
For `CCc1ccc(CC(=O)N2CCC3(CC2)CN([C@@H]2CCc4cc(-c5ncccn5)ccc42)C3)nc1` [Example 5B], the functional comment (human GHSR1a [1]) was “inverse agonist”, the IC50 (human GHSR1a [2]) was 0.0115 µM and the Ki (human GHSR1a [2]) was 0.0104 µM.
For `COc1ccc(CC(=O)N2CCC3(CC2)CN(C2CCc4cc(-c5nc(C)cc(C)n5)ccc42)C3)nc1` (racemic) [Example 2I], the functional comment (human GHSR1a [1]) was “inverse agonist”, the IC50 (human GHSR1a [2]) was 0.0153 µM and the Ki (human GHSR1a [2]) was 0.0512 µM.
For “5-{(1R)-1-[7-(2,3-dihydro[1,4]dioxino[2,3-b]pyridin-6-yl)acetyl)-2,7-diazaspiro[3.5]non-2-yl]-2,3-dihydro-1H-inden-5-yl}pyridine-2-carboxamide [Example 9A]”, the functional comment (human GHSR1a [1]) was “inverse agonist”, the IC50 (human GHSR1a [2]; [3]) was 0.0159 µM and the Ki (human GHSR1a [2]; [4]) was 0.0139 µM.
With `CCc1cc(-c2ccc3c(c2)CC[C@H]3N2CC3(CCN(C(=O)Cc4ccc(OC)cn4)CC3)C2)ncn1` [Example 3AA] the functional comment (human GHSR1a [1]) was “inverse agonist”, the IC50 (human GHSR1a [2]) was 0.0098 µM and the Ki (human GHSR1a [2]) was 0.00859 µM.
For `Cc1nccc(-c2ccc3c(c2)CC[C@H]3N2CC3(CCN(C(=O)Cc4ccc5c(n4)OCCO5)CC3)C2)n1` [Example 3E, 6-(2-{2-[(1R)-5-(2-methylpyrimidin-4-yl)-2,3-dihydro-1H-inden-1-yl]-2,7-diazaspiro[3.5]non-7-yl}-2-oxoethyl)-2,3-dihydro[1,4]dioxino[2,3-b]pyridine], the functional comment (human GHSR1a [1]) was “inverse agonist”, the IC50 (human GHSR1a [2]) was 0.0207 µM and the Ki (human GHSR1a [2]) was 0.0185 µM.
For `COc1ccc(CC(=O)N2CCC3(CC2)CN([C@@H]2CCc4cc(-c5ccn(C)n5)ccc42)C3)nc1` [Example 3N], the functional comment (human GHSR1a [1]) was “inverse agonist”, the IC50 (human GHSR1a [2]) was 0.0826 µM and the Ki (human GHSR1a [2]) was 0.0713 µM.
With `COc1ccc(CC(=O)N2CCC3(CC2)CN([C@@H]2CCc4cc(-c5nccc(C)n5)ccc42)C3)nc1` [Example 3S] the functional comment (human GHSR1a [1]) was “inverse agonist”, the IC50 (human GHSR1a [2]) was 0.0178 µM and the Ki (human GHSR1a [2]) was 0.0153 µM.
For `COc1ccc(CC(=O)N2CCC3(CC2)CN([C@@H]2CCc4cc(-n5nccn5)ccc42)C3)nc1` [Example 6D], the functional comment (human GHSR1a [1]) was “inverse agonist”, the IC50 (human GHSR1a [2]) was 0.00344 µM and the Ki (human GHSR1a [2]; [4]) was 0.00332 µM.
`COc1ccc(CC(=O)N2CCC3(CC2)CN([C@@H]2CCc4cc(-c5ncc(C)cn5)ccc42)C3)nc1` [Example 3H] was tested, and the functional comment (human GHSR1a [1]) was “inverse agonist”, the IC50 (human GHSR1a [2]) was 0.00951 µM and the Ki (human GHSR1a [2]; [4]) was 0.00917 µM.
For `Cc1ccn2cc(CC(=O)N3CCC4(CC3)CN([C@@H]3CCc5cc(-c6ncccn6)ccc53)C4)nc2c1` [Example 3X], the functional comment (human GHSR1a [1]) was “inverse agonist”, the IC50 (human GHSR1a [2]) was 0.0366 µM and the Ki (human GHSR1a [2]) was 0.0316 µM.
For `COc1ccc(CC(=O)N2CCC3(CC2)CN([C@@H]2CCc4cc(-c5cc(C)nc(C)n5)ccc42)C3)nc1` [Example 5G], the functional comment (human GHSR1a [1]) was “inverse agonist”, the IC50 (human GHSR1a [2]) was 0.0399 µM and the Ki (human GHSR1a [2]) was 0.033 µM.
`COc1ccc(CC(=O)N2CCC3(CC2)CN([C@@H]2CCc4cc(-n5cccn5)ccc42)C3)nc1` [Example 8C] showed an IC50 (human GHSR1a [2]) of 0.0823 µM and a Ki (human GHSR1a [2]) of 0.0664 µM.
For `COc1ccc(CC(=O)N2CCC3(CC2)CN(C2CCc4cc(-c5ccnc(C)c5)ccc42)C3)nc1` (racemic) [Example 2B], the IC50 (human GHSR1a [2]) was 0.00675 µM.
`Cc1ccnc(-c2ccc3c(c2)CCC3N2CC3(CCN(C(=O)Cc4cn5cc(C)sc5n4)CC3)C2)n1` (stereo not drawn) [Example 1K] was tested, and the IC50 (human GHSR1a [2]) was 0.0259 µM.
`COc1ccc(CC(=O)N2CCC3(CC2)CN([C@@H]2CCc4cc(-c5ccc(C(N)=O)cc5)ccc42)C3)nc1` [Example 4D] showed an IC50 (human GHSR1a [2]) of 0.0201 µM and a Ki (human GHSR1a [2]) of 0.0175 µM.
`COc1ccc(CC(=O)N2CCC3(CC2)CN([C@@H]2CCc4cc(-c5ccncn5)ccc42)C3)nc1` [Example 3AE] was tested, and the IC50 (human GHSR1a [2]) was 0.0732 µM and the Ki (human GHSR1a [2]) was 0.0689 µM.
Work on `Cc1ccnc(-c2ccc3c(c2)CC[C@H]3N2CC3(CCN(C(=O)Cc4cn5nc(C)sc5n4)CC3)C2)n1` [Example 3Y] yielded an IC50 (human GHSR1a [2]) of 0.0307 µM and a Ki (human GHSR1a [2]) of 0.0259 µM.
Work on `CCc1ccc(CC(=O)N2CCC3(CC2)CN([C@@H]2CCc4cc(-c5ncccn5)ccc42)C3)cc1` [Example 5F] yielded an IC50 (human GHSR1a [2]) of 0.0128 µM and a Ki (human GHSR1a [2]) of 0.0104 µM.
`Cc1cc(-c2ccc3c(c2)CC[C@H]3N2CC3(CCN(C(=O)Cc4cn5nccnc5n4)CC3)C2)ncn1` [Example 3AY] showed an IC50 (human GHSR1a [2]) of 0.495 µM and a Ki (human GHSR1a [2]) of 0.44 µM.
`O=C(Cc1cn2ccccc2n1)N1CCC2(CC1)CN([C@@H]1CCc3cc(-c4ncccn4)ccc31)C2` [Example 3Q] showed an IC50 (human GHSR1a [2]) of 0.0266 µM and a Ki (human GHSR1a [2]) of 0.023 µM.
Work on `COc1ccc(CC(=O)N2CCC3(CC2)CN([C@@H]2CCc4cc(-n5cncn5)ccc42)C3)nc1` [Example 6I] yielded an IC50 (human GHSR1a [2]) of 0.483 µM and a Ki (human GHSR1a [2]) of 0.417 µM.
In the case of `COc1ccc(NC(C)=O)c(CC(=O)N2CCC3(CC2)CN([C@@H]2CCc4cc(-c5ncccn5)ccc42)C3)c1` [Example 3P], the IC50 (human GHSR1a [2]) is reported as 0.0363 µM and the Ki (human GHSR1a [2]) is reported as 0.0317 µM.
In the case of `COc1ccc(CC(=O)N2CCC3(CC2)CN(C2CCc4cc(-c5ncc(C)s5)ccc42)C3)nc1` (stereo not drawn) [Example 1G], the IC50 (human GHSR1a [2]) is reported as 0.00756 µM and the Ki (human GHSR1a [2]) is reported as 0.00867 µM.
With `O=C(Cc1ccc(C(F)F)cn1)N1CCC2(CC1)CN([C@@H]1CCc3cc(-c4ncccn4)ccc31)C2` [Example 3AW] the IC50 (human GHSR1a [2]) was 0.949 µM and the Ki (human GHSR1a [2]) was 0.785 µM.
For `Cc1ccc(CC(=O)N2CCC3(CC2)CN([C@@H]2CCc4cc(-c5ccn(C)n5)ccc42)C3)nc1` [Example 3J], the IC50 (human GHSR1a [2]) was 0.0529 µM and the Ki (human GHSR1a [2]) was 0.0465 µM.
Compound `COc1ccc(CC(=O)N2CCC3(CC2)CN([C@@H]2CCc4cc(-c5cc(C(N)=O)ncn5)ccc42)C3)nc1` [Example 10D] has an IC50 (human GHSR1a [2]) of 0.0947 µM and a Ki (human GHSR1a [2]) of 0.0829 µM.
`COc1ccc(CC(=O)N2CCC3(CC2)CN([C@@H]2CCc4cc(-c5ccnc(C)n5)ccc42)C3)nc1` [Example 3K] was tested, and the IC50 (human GHSR1a [2]) was 0.0995 µM and the Ki (human GHSR1a [2]) was 0.0871 µM.
